Source: ChEMBL document CHEMBL5725589, “Heterocyclic compounds as PI3K-γ inhibitors” (2018)

How the values were obtained:
[1] = biological target: Tyrosine-protein kinase JAK1 (Homo sapiens, UniProt P23458); assay: In Vitro JAK Kinase Assay: Compounds herein were tested for inhibitory activity of JAK targets according to the following in vitro assay described in Park et al., Analytical Biochemistry 1999, 269, 94-104. The catalytic domains of human JAK1 (a.a. 837-1142), JAK2 (a.a. 828-1132) and JAK3 (a.a. 781-1124) were expressed using baculovirus in insect cells and purified. The catalytic activity of JAK1 …
[2] = biological target: T1, Phosphatidylinositol 4,5-bisphosphate 3-kinase catalytic subunit delta isoform (Homo sapiens, UniProt O00329); assay: PI3Kδ (p110δ/p85α) Recombinant Human Protein was purchased from Eurofins (St Charles, Mo.). […] The final concentration of DMSO in the assay was 2%. […] ATP, 3.4 nM PI3Kδ. […] The final concentration of SPA beads is 1.0 mg/mL.
T1 sequence (O00329 whole entry): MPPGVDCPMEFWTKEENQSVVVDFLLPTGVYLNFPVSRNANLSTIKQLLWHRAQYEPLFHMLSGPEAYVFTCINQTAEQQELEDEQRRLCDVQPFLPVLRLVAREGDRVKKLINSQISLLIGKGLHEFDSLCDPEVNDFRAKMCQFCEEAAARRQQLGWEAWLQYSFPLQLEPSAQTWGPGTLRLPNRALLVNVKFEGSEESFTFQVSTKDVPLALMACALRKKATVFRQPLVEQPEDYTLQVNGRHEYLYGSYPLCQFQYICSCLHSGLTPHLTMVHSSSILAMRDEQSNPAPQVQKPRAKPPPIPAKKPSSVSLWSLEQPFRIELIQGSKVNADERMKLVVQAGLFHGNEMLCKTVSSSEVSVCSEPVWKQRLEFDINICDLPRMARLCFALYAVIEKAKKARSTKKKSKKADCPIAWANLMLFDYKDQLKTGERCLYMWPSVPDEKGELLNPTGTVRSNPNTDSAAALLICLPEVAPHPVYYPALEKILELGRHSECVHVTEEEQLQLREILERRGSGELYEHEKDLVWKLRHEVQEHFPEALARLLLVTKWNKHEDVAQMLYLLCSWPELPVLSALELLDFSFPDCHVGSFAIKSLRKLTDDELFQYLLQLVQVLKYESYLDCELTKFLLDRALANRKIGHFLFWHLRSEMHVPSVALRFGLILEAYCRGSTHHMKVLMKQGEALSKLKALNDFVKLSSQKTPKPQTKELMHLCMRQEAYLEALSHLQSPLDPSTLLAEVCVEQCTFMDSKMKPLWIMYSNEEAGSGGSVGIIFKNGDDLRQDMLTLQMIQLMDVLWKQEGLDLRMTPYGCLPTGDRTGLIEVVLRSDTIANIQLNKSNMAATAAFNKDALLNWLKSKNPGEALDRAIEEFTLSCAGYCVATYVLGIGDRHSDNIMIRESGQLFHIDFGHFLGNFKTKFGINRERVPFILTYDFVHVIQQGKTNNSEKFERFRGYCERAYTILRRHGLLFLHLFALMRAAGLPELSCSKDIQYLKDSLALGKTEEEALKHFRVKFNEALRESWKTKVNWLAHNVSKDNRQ

[3] = biological target: Phosphatidylinositol 4,5-bisphosphate 3-kinase catalytic subunit gamma isoform (Homo sapiens, UniProt P48736); assay: PI3Kγ (p110γ) Recombinant Human Protein was purchased from Life technology (Grand Island, N.Y.). […] The final concentration of DMSO in the assay was 2%. […] ATP, 13 nM PI3Kγ. […] The final concentration of SPA beads is 1.0 mg/mL.
Phosphatidylinositol 4,5-bisphosphate 3-kinase catalytic subunit gamma isoform, sequence (P48736 whole entry, canonical isoform): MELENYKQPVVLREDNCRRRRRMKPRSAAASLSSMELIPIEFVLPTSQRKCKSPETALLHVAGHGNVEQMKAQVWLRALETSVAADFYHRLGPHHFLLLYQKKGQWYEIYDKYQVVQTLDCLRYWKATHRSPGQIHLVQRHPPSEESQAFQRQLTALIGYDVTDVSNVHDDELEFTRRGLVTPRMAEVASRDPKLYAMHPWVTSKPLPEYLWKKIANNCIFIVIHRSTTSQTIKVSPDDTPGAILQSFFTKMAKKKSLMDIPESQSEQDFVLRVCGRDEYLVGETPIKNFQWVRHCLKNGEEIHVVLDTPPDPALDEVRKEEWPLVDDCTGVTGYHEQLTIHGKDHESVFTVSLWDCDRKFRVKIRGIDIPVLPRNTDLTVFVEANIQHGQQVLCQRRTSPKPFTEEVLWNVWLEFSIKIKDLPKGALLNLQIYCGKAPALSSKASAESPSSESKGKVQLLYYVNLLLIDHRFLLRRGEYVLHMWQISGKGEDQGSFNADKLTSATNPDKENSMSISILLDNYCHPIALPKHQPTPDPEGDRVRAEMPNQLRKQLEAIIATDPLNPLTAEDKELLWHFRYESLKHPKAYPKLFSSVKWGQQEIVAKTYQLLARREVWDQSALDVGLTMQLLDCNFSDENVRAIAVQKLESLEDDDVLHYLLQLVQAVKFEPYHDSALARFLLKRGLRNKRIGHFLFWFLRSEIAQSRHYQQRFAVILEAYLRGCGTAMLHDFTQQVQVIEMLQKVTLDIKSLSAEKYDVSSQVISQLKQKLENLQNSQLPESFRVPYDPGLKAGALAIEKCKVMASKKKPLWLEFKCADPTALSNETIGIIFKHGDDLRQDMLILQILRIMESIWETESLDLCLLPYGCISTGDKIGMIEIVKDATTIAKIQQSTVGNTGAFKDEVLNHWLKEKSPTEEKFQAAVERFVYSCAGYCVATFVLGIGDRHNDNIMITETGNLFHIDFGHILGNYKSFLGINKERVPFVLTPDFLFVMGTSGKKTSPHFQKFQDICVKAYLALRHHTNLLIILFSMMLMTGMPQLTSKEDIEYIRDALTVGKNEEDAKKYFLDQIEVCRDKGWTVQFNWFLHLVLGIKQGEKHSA

Tyrosine-protein kinase JAK1, sequence (P23458 whole entry, the tested form may be a part, canonical isoform): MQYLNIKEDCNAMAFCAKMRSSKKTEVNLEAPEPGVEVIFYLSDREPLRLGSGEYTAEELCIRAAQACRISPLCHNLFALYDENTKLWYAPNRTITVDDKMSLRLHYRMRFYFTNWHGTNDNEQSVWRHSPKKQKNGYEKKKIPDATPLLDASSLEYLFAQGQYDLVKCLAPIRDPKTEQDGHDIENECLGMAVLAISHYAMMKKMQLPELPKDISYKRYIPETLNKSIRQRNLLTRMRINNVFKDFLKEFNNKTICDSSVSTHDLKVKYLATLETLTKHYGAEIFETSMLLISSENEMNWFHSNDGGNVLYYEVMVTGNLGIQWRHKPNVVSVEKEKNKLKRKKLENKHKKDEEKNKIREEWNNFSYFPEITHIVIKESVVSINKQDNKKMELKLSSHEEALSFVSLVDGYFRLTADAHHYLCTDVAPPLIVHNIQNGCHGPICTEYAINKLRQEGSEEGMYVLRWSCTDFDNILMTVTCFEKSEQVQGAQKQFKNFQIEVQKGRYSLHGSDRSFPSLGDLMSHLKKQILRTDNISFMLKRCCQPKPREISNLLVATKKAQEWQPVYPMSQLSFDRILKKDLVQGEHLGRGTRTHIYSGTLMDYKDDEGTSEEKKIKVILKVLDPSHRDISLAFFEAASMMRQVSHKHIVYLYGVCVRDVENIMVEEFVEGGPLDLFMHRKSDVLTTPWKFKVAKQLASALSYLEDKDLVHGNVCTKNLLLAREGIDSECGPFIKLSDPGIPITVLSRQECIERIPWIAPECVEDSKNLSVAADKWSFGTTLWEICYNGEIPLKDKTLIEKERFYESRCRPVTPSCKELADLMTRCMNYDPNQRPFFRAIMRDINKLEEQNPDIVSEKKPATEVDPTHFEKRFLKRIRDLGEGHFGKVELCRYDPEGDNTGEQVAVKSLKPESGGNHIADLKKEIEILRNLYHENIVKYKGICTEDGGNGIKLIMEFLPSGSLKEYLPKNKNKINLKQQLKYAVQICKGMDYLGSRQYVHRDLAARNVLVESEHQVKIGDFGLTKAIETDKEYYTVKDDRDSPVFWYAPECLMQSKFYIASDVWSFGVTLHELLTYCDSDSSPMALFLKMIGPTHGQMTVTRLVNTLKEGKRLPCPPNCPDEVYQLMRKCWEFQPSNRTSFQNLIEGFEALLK

IC50 [1] [µM]	IC50 [2] [µM]	IC50 [3] [µM]	Structure (SMILES)
< 0.1	–	–	N#CCC1(n2cc(-c3ncnc4[nH]ccc34)cn2)CN(C2CCN(C(=O)Nc3ccc(F)cc3C(F)(F)F)CC2)C1
< 0.1	–	–	N#CCC1(n2cc(-c3ncnc4[nH]ccc34)cn2)CN(C2CCN(C(=O)c3ccnc(C(F)(F)F)n3)CC2)C1
< 0.1	–	–	N#CC[C@]1(n2cc(-c3ncnc4[nH]ccc34)cn2)C[C@H](N2CCC(Oc3cc(CN4CC(O)C4)cc(C(F)(F)F)n3)CC2)C1
< 0.1	–	–	N#CC[C@]1(n2cc(-c3ncnc4[nH]ccc34)cn2)C[C@H](N2CCN(C(=O)c3ccnc(C(F)(F)F)n3)CC2)C1
< 0.1	–	–	CCNCc1cc(O[C@H]2CC[C@@H](N3CC(CC#N)(n4cc(-c5ncnc6[nH]ccc56)cn4)C3)CC2)nc(C(F)(F)F)c1
–	< 0.5	< 0.5	CC(NC(=O)c1c(N)nn2cccnc12)c1cc(Cl)c2cn(CC(=O)N3CCOCC3)nc2c1-c1ccccc1 (centres undefined)
< 0.1	–	–	N#CC[C@]1(n2cc(-c3ncnc4[nH]ccc34)cn2)C[C@H](N2CCC(Oc3cc(CN4CCC[C@@H]4CO)cc(C(F)(F)F)n3)CC2)C1
< 0.1	–	–	N#CCC(CN1CCN(C(=O)c2ccc(C#N)cc2F)CC1)n1ccc(-c2ncnc3[nH]ccc23)c1 (centres undefined)
–	< 0.1	< 0.1	CC(NC(=O)c1c(N)nn2cccnc12)c1cc(Cl)c2cnn(CCN3CCOCC3)c2c1-c1ccccc1 (centres undefined)
–	< 0.5	< 0.5	CCOc1c(C(C)NC(=O)c2c(N)nn3cccnc23)cc(Cl)c2cn(C)nc12 (centres undefined)
< 0.1	–	–	N#CCC1(n2cc(-c3ncnc4[nH]ccc34)cn2)CN([C@H]2CC[C@@H](Oc3cc(CCO)nc(C(F)(F)F)n3)CC2)C1
< 0.1	–	–	N#CC[C@]1(n2cc(-c3ncnc4[nH]ccc34)cn2)C[C@H](N2CCC(Oc3cc(CCO)cc(C(F)(F)F)n3)CC2)C1
< 0.1	–	–	CC(C)(O)c1cc(O[C@H]2CC[C@@H](N3CC(CC#N)(n4cc(-c5ncnc6[nH]ccc56)cn4)C3)CC2)nc(C(F)(F)F)c1
–	< 2	< 0.1	CC(NC(=O)c1c(N)nn2cccnc12)c1cc(Cl)c2c(Br)n[nH]c2c1-c1ccccc1 (centres undefined)
–	< 0.1	< 0.1	Cc1ncc2c(Cl)cc(C(C)NC(=O)c3c(N)nn4cccnc34)c(-c3cccc(F)c3)n12 (centres undefined)
< 0.1	–	–	C[C@@H](CO)NCc1cc(OC2CCN([C@H]3C[C@](CC#N)(n4cc(-c5ncnc6[nH]ccc56)cn4)C3)CC2)nc(C(F)(F)F)c1
–	< 0.5	< 0.1	CC(NC(=O)c1c(N)nn2cccnc12)c1cc(Cl)c2cn[nH]c2c1-c1ccccc1 (centres undefined)
–	< 0.5	< 0.1	Cc1n[nH]c2c(-c3ccccc3)c(C(C)NC(=O)c3c(N)nn4cccnc34)cc(Cl)c12 (centres undefined)
–	< 2	< 0.1	Cc1cc(C(C)NC(=O)c2c(N)nn3cccnc23)c(-c2cccc(F)c2)n2c(C)ncc12 (centres undefined)
< 0.1	–	–	C[C@H](NC(=O)c1cc(F)c(N2CC(CC#N)(n3cc(-c4ncnc5[nH]ccc45)cn3)C2)cc1F)C(F)(F)F
–	< 0.1	< 0.1	CCOc1c(C(C)NC(=O)c2c(N)nn3cccnc23)cc(Cl)c2cnn(C)c12 (centres undefined)
< 0.1	–	–	N#CC[C@]1(n2cc(-c3ncnc4[nH]ccc34)cn2)C[C@H](N2CCC(Oc3cc(CN4CCC[C@H]4CO)cc(C(F)(F)F)n3)CC2)C1
< 0.1	–	–	N#CCC1(n2cc(-c3ncnc4[nH]ccc34)cn2)CN([C@H]2CC[C@@H](Oc3cc(CN4CC[C@@H](O)C4)cc(C(F)(F)F)n3)CC2)C1
< 0.1	–	–	N#CCC1(n2cc(-c3ncnc4[nH]ccc34)cn2)CN([C@H]2CC[C@@H](Oc3cc(CN4CC[C@H](O)C4)cc(C(F)(F)F)n3)CC2)C1 (single isomer, unassigned)
< 0.1	–	–	N#CCC1(n2cc(-c3ncnc4[nH]ccc34)cn2)CN(C2CCN(C(=O)c3ccnc(C(F)(F)F)c3F)CC2)C1 [ITACITINIB]

Structure (SMILES)	IC50 [1] [µM]	IC50 [2] [µM]	IC50 [3] [µM]
N#CCC(C1CCN(c2nc3cccnc3o2)C1)n1cc(-c2ncnc3[nH]ccc23)cn1 (centres undefined)	< 0.1	–	–
Cc1cc(C(C)NC(=O)c2c(N)nn3cccnc23)c(-c2ccccc2)c2[nH]nc(C)c12 (centres undefined)	–	< 2	< 0.5
CC(NC(=O)c1c(N)nn2cccnc12)c1cc(C#N)c2cncn2c1-c1ccccc1 (centres undefined)	–	< 0.5	< 0.5
CC(NC(=O)c1c(N)nn2cccnc12)c1cc(Cl)c2cn(Cc3ccn(C)n3)nc2c1-c1ccccc1 (centres undefined)	–	< 2	< 0.5
C[C@@H](O)c1nc2cnc3ccsc3c2n1[C@H]1CC[C@H](CC#N)OC1	< 0.5	–	–
CCCC(NC(=O)c1c(N)nn2cccnc12)c1cc(Cl)c2cncn2c1N1CCS(=O)(=O)CC1 (centres undefined)	–	< 0.1	< 0.1
CC(NC(=O)c1c(N)nn2cccnc12)c1cc(Cl)c2cncn2c1-c1ccccc1 (centres undefined)	–	< 0.1	< 0.1
C[C@@H](O)CNCc1cc(OC2CCN([C@H]3C[C@](CC#N)(n4cc(-c5ncnc6[nH]ccc56)cn4)C3)CC2)nc(C(F)(F)F)c1	< 0.1	–	–
CCOc1c(C(C)NC(=O)c2c(N)nn3cccnc23)cc(Cl)c2cn(CC)nc12 (centres undefined)	–	< 2	< 0.5
